Where two headings read alike, the source gives them in different places.
Assays:
[1] = test system: p75^NTR (i.e. Chopper)-mediated cell apoptosis; type: cell-based, mice
[2] = test system: p75^NTR-mediated cell apoptosis; test: Caspase activity after injection into the eye of chick embryos (FIG. 11); type: in vivo; conditions: injected into the eye of chick embryos; 500 nM of Tertiapin
Procedure: FIG. 11 is a graphical representation showing that p75^NTR-mediated cell apoptosis requires functional GIRK channels. Apoptotic activity is measured in terms of caspase activity in the presence of Tertiapin, anti-NGF antibody and Iberiotoxin.
In FIG. 11, Tertiapin was injected into the eye of chick embryos. Anti-NGF antibodies and Iberiotoxin ([…]) were also tested. Apoptotic activity was measured using caspase activity.

ROMK1 channels = biological target: T1, ROMK1 channels (Homo sapiens, UniProt P48048); conditions: cited from earlier work
T1 sequence (P48048 whole entry, looked up): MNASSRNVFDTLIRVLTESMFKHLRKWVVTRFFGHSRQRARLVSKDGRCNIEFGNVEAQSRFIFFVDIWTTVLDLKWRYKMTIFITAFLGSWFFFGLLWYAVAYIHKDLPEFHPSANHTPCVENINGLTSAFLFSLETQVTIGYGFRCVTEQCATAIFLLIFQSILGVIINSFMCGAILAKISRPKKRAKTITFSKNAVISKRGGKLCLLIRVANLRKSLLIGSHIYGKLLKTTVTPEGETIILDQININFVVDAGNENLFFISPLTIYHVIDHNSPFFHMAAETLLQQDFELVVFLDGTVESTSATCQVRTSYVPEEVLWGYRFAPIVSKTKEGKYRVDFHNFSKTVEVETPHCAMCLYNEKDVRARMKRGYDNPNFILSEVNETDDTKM

GIRK 1 and 4 subunits = biological target: T2, GIRK 1 and 4 subunits (Homo sapiens, UniProt P48544+P48549); conditions: cited from earlier work
T2 sequence (P48544 whole entry, looked up): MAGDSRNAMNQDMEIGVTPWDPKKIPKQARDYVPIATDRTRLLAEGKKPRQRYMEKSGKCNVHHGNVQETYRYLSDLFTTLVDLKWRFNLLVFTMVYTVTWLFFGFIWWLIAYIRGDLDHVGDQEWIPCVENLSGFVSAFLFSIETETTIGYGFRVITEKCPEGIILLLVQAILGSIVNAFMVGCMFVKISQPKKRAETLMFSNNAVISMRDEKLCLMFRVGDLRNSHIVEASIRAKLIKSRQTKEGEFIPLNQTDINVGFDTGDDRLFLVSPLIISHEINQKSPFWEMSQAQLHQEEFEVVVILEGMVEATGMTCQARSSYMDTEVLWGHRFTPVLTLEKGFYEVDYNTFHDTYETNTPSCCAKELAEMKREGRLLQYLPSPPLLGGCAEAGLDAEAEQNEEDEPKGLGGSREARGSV
T2 sequence (P48549 whole entry, looked up): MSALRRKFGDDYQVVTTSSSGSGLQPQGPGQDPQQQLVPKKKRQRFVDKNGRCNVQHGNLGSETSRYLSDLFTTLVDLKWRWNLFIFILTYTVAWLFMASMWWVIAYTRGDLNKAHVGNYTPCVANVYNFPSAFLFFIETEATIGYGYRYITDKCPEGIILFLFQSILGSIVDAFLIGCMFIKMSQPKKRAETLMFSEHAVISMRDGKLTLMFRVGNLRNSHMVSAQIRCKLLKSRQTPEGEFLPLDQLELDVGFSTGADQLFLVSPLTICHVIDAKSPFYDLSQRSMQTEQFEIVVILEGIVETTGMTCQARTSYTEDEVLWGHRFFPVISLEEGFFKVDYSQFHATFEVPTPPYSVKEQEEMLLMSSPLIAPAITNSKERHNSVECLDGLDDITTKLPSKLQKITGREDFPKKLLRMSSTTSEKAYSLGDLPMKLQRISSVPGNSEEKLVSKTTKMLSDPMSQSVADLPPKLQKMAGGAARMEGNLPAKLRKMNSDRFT

[3] = p75NTR (Chopper)-mediated apoptosis of neuronal cells, neuronal viability after Chopper peptide, inhibitor added just prior or pretreated

For 2-APB, which “Prevention of killing?” value [1, 3] is on record?
The value was “No”.

With `Nc1ccncc1` [4-aminopyridine] as the compound, how does the “Prevention of killing?” value [1, 3] read?
Its value is “Toxic”.

Which “Prevention of killing?” value [1, 3] does the source give for `CC(=O)OCOC(=O)CN(CC(=O)OCOC(C)=O)c1ccccc1OCCOc1ccccc1N(CC(=O)OCOC(C)=O)CC(=O)OCOC(C)=O` [BAPTA-AM] here?
The value was “Yes”.

With `O=C(O)CN(CC(=O)O)c1ccccc1OCCOc1ccccc1N(CC(=O)O)CC(=O)O` [BAPTA] as the compound, how does the “Prevention of killing?” value [1, 3] read?
Its value is “No”.

Which cell survival ([1]; GABA receptor agonist activating GIRKs (FIG. 10 model)) does the source give for `NCC(CC(=O)O)c1ccc(Cl)cc1` (stereo not shown) [Baclofen] here?
The cell survival was “promotion of cell survival”.

For `CCCCN1CCCCC1C(=O)Nc1c(C)cccc1C` (stereo not shown) [Bupivicane], which “Chopper domain-mediated killing / p75^NTR (i.e. Chopper)-mediated cell apoptosis” value ([1]; FIGS. 3-7, 10) is on record?
Its value is “inhibited”.

What about the “Prevention of killing?” value [1, 3] of the same compound?
Its value is “Yes”.

Which “Chopper domain-mediated killing / p75^NTR (i.e. Chopper)-mediated cell apoptosis” value [1] does the source give for `CC[N+](CC)(CC)CC.[Cl-]` [TEA, Tetraethylammonium chloride] here?
Its value is “inhibited”.

And the “Prevention of killing?” value [1]?
Its value is “Yes”.

With Charybdotoxin as the compound, how does the “Chopper domain-mediated killing / p75^NTR (i.e. Chopper)-mediated cell apoptosis” value ([1]; FIGS. 3-7, 10) read?
Its value is “inhibited”.

And the “Prevention of killing?” value [1, 3]?
The value was “Yes”.

Which “Prevention of killing?” value [1, 3] does the source give for “Iberiotoxin (QFTDVDCSVSKECWSVCKDLFGVDRGKCMGKKCRCYQ; UniProt P24663 1-37, looked up)” here?
The value was “No”.

With Margatoxin as the compound, how does the “Prevention of killing?” value [1, 3] read?
Its value is “No”.

Which results are given for Pertussis toxin [Pertusis toxin]?
Chopper domain-mediated killing / p75^NTR (i.e. Chopper)-mediated cell apoptosis ([1]; FIGS. 3-7, 10): still results in Chopper-mediated killing; Prevention of killing? [1, 3]: No

Which “Prevention of killing?” value [1] does the source give for TTX here?
The value was “No”.

Which results are given for Tertiapin (ALCNCNRIIIPHMCWKKCGKK)?
caspase activity (apoptotic activity) [2]: effective in reducing caspase activity; affinity of inhibition (ROMK1 channels): nanomolar affinities; affinity of inhibition (GIRK 1 and 4 subunits): nanomolar affinities; Chopper domain-mediated killing / p75^NTR (i.e. Chopper)-mediated cell apoptosis ([1]; FIGS. 3-7, 10): inhibited; Prevention of killing? [1, 3]: Yes

For δ-Dendrotoxin, which “Prevention of killing?” value [1, 3] is on record?
The value was “No”.

Reference: patent US20070270352A1, “Method of Treatment” (priority 2002, published 2007)
